# Measured values published in paper PMC6099706, “Anti-Mycobacterium tuberculosis Activity of Esters of Quinoxaline 1,4-Di-N-Oxide” (Molecules : A Journal of Synthetic Chemistry and Natural …, 2018).
# What was measured:
# M. tb H37Rv = assay: MIC on M. tb H37Rv (Table 4 panel); assay type: cell-based; conditions: Mycobacterium tuberculosis
# M. smegmatis = assay: MIC on nontuberculous Mycobacterium clinical isolate; assay type: cell-based; conditions: Mycolicibacterium smegmatis
# [1] = test system: Mycobacterium tuberculosis strain H37Rv; assay: microplate Alamar blue assay (MABA); assay type: cell-based; conditions: Mycobacterium tuberculosis, H37RV, M. tuberculosis H37Rv; lowest concentration effecting 90% inhibition
# M. chelonae = assay: MIC on nontuberculous Mycobacterium clinical isolate; assay type: cell-based; conditions: Mycobacteroides chelonae
# [2] = cytotoxicity on macrophages (Alamar blue) and selectivity index; assay type: cell-based, mouse; conditions: mouse, J774A.1 macrophage cells; for CC50 at 96 h: cytotoxicity on macrophage cell J774A.1 at 96 h; for CC50 at 6 h: cytotoxicity on macrophage cell J774A.1 at 6 h
# Protocol: (§1) The determination of the half maximal cytotoxicity concentration (CC50) of the compounds T-006, T-011, T-018, T-022, T-069, T-085, T-088, and T-089 was carried out on the mouse macrophage cell line J774A.1 (ATCC TIB-67). Briefly, cell monolayers were prepared in 96-well plates with 10,000 cells per well in Ham’s F-12 medium supplemented with 10% Fetal bovine serum (FBS, By products, Guadalajara, Mexico) and antibiotics (penicillin and gentamicin). Five concentrations from 100 to 0.5 μg/mL of each of the compounds were tested. The cells were incubated for a period of 6 h (^−) or 96 h (^+). Before completing this period, 20 μL of Alamar blue solution was added to each well, quantifying the relative fluorescence units in a fluorometer (Fluoroskan Ascent FL, Labsystems). The percentage of cytotoxicity at each concentration was determined by comparing the values against the control of cells without treatment. The CC50 was determined with the Probit regression analysis (MedCalc Statistical Software version 18.5, Ostend, Belgium). Selectivity index was calculated as the ratio of the CC50 on the macrophage cell line J774A.1 and the MIC value against M. tuberculosis strain H37Rv.
# [3] = test system: mouse macrophage cell line J774A.1; assay: as above; assay type: cell-based; conditions: ratio of CC50 on J774A.1 and MIC against M. tuberculosis H37Rv
# Protocol: as §1
# [4] = test system: nonreplicating persistent (NRP) M. tuberculosis strain; assay: microbe, parasite or virus in culture; assay type: cell-based, Mycobacterium tuberculosis; conditions: Mycobacterium tuberculosis; nonreplicating persistent strain; read-out: LORA MIC
# M. abscessus = assay: MIC on nontuberculous Mycobacterium clinical isolate; assay type: cell-based; conditions: Mycobacteroides abscessus
# M. avium = assay: as above; assay type: cell-based
# M. fortuitum = assay: as above; assay type: cell-based; conditions: Mycolicibacterium fortuitum
# [5] = molecular target: M. tuberculosis gyrase (GyrA and Gyr B subunits) (Mycobacterium tuberculosis, UniProt P9WG45+P9WG47); assay: M. tuberculosis gyrase supercoiling assay; assay type: biochemical; conditions: at 50 μM
# Chain of M. tuberculosis gyrase (GyrA and Gyr B subunits) (P9WG45 whole entry): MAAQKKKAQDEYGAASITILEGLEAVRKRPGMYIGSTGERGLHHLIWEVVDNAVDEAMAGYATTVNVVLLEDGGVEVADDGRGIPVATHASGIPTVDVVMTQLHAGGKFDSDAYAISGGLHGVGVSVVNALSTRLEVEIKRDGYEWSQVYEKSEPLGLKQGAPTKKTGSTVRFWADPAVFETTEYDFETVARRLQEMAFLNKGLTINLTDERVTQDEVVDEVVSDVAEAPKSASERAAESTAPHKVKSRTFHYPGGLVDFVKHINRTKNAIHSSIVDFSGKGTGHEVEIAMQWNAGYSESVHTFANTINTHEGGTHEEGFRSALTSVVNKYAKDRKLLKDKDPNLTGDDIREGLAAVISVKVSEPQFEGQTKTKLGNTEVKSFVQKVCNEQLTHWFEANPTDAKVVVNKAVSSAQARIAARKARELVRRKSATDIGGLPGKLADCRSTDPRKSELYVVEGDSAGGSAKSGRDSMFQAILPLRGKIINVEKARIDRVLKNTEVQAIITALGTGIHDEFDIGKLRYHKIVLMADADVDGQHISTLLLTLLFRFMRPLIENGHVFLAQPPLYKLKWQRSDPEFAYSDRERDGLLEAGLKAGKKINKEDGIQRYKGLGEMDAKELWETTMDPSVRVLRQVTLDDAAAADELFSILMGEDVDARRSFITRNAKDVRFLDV
# Chain of M. tuberculosis gyrase (GyrA and Gyr B subunits) (P9WG47 whole entry): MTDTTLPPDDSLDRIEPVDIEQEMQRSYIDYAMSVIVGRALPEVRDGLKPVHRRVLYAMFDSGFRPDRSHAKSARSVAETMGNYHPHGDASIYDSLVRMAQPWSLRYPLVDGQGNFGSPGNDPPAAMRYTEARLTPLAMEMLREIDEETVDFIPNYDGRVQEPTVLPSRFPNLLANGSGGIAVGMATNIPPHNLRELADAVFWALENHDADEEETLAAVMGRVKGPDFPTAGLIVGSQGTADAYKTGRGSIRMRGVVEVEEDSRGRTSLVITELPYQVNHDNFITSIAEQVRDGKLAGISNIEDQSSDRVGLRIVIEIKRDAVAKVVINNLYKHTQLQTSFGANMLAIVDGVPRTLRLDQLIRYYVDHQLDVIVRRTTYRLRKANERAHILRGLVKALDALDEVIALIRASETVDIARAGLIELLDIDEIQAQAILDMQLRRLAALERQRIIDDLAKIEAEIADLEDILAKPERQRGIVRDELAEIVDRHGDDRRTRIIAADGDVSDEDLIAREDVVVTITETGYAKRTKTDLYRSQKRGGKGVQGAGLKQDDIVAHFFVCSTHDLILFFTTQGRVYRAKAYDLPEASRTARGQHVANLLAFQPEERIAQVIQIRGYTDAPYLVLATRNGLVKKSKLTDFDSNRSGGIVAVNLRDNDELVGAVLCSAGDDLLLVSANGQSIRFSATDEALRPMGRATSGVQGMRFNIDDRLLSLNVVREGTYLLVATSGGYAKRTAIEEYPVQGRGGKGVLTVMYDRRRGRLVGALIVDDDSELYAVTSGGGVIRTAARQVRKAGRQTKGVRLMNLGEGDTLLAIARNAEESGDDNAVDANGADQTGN
# Protocol: The activity of the enzyme was determined prior to the testing of the quinoxaline 1,4-di-N-oxide derivatives and 1 U was defined as the amount of enzyme required to just fully supercoil the substrate under test conditions. Compounds were tested at 50 μM. Final DMSO concentration in the assays was 1% (v/v).
# 1 U of M. tuberculosis gyrase (GyrA and Gyr B subunits) (final concentration in assay 50 nM) was incubated with 0.5 μg of relaxed pBR322 DNA in a 30 μL reaction at 37 °C for 30 min under the following conditions: 50 mM HEPES. KOH (pH 7.9), 6 mM magnesium acetate, 4 mM DTT, 1 mM ATP, 100 mM potassium glutamate, 2 mM spermidine and 0.05 mg/mL albumin.
# Each reaction was stopped by the addition of 30 μL chloroform/iso-amyl alcohol (26:1) and 20 μL Stop Dye (40% sucrose, 100 mM Tris.HCl (pH 7.5), 10 mM EDTA, 0.5 μg/mL bromophenol blue), before being loaded on a 1.0% TAE (Tris.acetate […], EDTA […]) gel run at 80 V for 2 h.
# Bands were visualized by ethidium staining for 10 min, destained for 10 min in water, analyzed by gel documentation equipment (Syngene, Cambridge, UK), and quantified using Syngene software (Genetools version 4.00 (1997–1998), Syngene, A division of Synoptics Corp, Cambridge, UK).
# Raw gel data (fluorescent band volumes) collected from Syngene’s GeneTools gel analysis software were converted to a % of the 100% control (the supercoiled enzyme plus DMSO control DNA band). These were analyzed using SigmaPlot Version 13.0 (Systat Software Inc., London, UK; 2016).
# [6] = stability in human plasma by UPLC-MS; assay type: in vitro ADME; conditions: 37 °C, 24 h
# Protocol: Compounds T-018 and T-069 were selected to analyze their stability in human plasma. A total of 1 mg of each of the two compounds was dissolved in 1 mL of dichlorometane. Then, 0.1 mL was added to 0.9 mL of 0.1% formic acid in acetonitrile for analysis by UPLC with an ACQUITY QDa mass detector from Waters (Milford, MA, USA) under the following conditions: column: ACQUITY UPLC® BEH C18 1.7 µm, 2.1 × 100 mm; mobile phase: 0.1% formic acid/acetonitrile; run time: 5 min; flow rate: 0.3 mL/min; injection volume: 0.5 µL; temperature: 40 °C. After that, 3 mL of human plasma was obtained from a volunteer under medical supervision and following the standard procedures. Then, 1 mg of T-018 and T-069 were dissolved with DMSO 2% and added to 1 mL of human plasma. Samples were incubated at 37 °C for 12 and 24 h. T-018 and T-069 were obtained by liquid extraction with dichloromethane (10 mL) three times and the solvent was eliminated for vacuum pressure. After that, 1 mL of dichlorometane was added and 0.1 mL was added to 0.9 mL of 0.1% formic acid in acetonitrile and analyzed by UPLC-MS. Percentage of degradation was calculated considering the area under the curve of each peak/the area under the curve of all peaks × 100% at 24 h only.
SMILES,MIC (M. tb H37Rv) [µg/mL],MIC (M. smegmatis) [µg/mL],MIC [1] [µg/mL],MIC (M. chelonae) [µg/mL],CC50 at 96 h [2] [µg/mL],SI (selectivity index) [3],MIC [4] [µg/mL],MIC (M. abscessus) [µg/mL],MIC (M. avium) [µg/mL],MIC (M. fortuitum) [µg/mL],inhibitory effect on M. tuberculosis gyrase supercoiling [5],CC50 at 6 h [2] [µg/mL],stability in human plasma [6]
CCOC(=O)c1ccc2c(c1)[n+]([O-])c(C(C)=O)c(C(F)(F)F)[n+]2[O-] [Compound T-006],2,> 10,0.29,> 10,> 100,>50,0.42,> 10,2.5,> 10,,,
CC(C)OC(=O)c1ccc2c(c1)[n+]([O-])c(C(=O)c1cccs1)c(C(F)(F)F)[n+]2[O-] [Compound T-069],1,> 10,≤ 0.15,2.5,,41.26,0.23,> 10,5,> 10,none of the compounds showed an inhibitory effect,41.3,high stability
COC(=O)c1ccc2c(c1)[n+]([O-])c(C(=O)c1ccccc1)c(C(F)(F)F)[n+]2[O-] [Compound T-018],1,2.5,≤ 0.15,> 10,,35.37,0.34,5,2.5,> 10,none of the compounds showed an inhibitory effect,35.4,
CCCOC(=O)c1ccc2c(c1)[n+]([O-])c(C(=O)OC)c(C)[n+]2[O-] [Compound T-088],0.5,2.5,≤ 0.15,> 10,36.5,73.02,0.27,> 10,> 10,> 10,,,
COC(=O)c1ccc2c(c1)[n+]([O-])c(C(=O)OC)c(C)[n+]2[O-] [Compound T-022],0.5,0.62,0.29,2.5,86.2,,0.56,> 10,2.5,2.5,,,
"CO[C@H]1/C=C/O[C@@]2(C)Oc3c(C)c(O)c4c(O)c(c(/C=N/N5CCN(C)CC5)c(O)c4c3C2=O)NC(=O)/C(C)=C\C=C\[C@H](C)[C@H](O)[C@@H](C)[C@@H](O)[C@@H](C)[C@H](OC(C)=O)[C@@H]1C [RMP, rifampicin, reference compound]",< 0.06,,0.03,,,,0.89,,,,,,
CCOC(=O)c1ccc2c(c1)[n+]([O-])c(C(=O)c1cccs1)c(C(F)(F)F)[n+]2[O-] [Compound T-011],0.5,0.62,≤ 0.15,> 10,,3.34,0.21,> 10,< 0.31,2.5,none of the compounds showed an inhibitory effect,1.67,
CC(C)OC(=O)c1ccc2c(c1)[n+]([O-])c(C(=O)C(C)C)c(C(F)(F)F)[n+]2[O-] [Compound T-085],1,1.25,≤ 0.15,5,,45.42,0.13,2.5,0.62,2.5,,45.4,
CCCOC(=O)c1ccc2c(c1)[n+]([O-])c(C(=O)c1cccs1)c(C(F)(F)F)[n+]2[O-] [Compound T-089],0.5,> 10,0.12,> 10,,48.54,0.15,> 10,0.62,> 10,,24.3,
